Data from US9113629B2, “4-amino-6-(4-substituted-phenyl)-picolinates and 6-amino-2-(4-substituted-phenyl)-pyrimidine-4-carboxylates and their use as herbicides” (DOW AGROSCIENCES LLC, priority 2013, dated 2015).
Where two headings read alike, the source gives them in different places.

What was measured:
[1] = system: Key Broadleaf Weed and Crop Species; assay: Post-emergent Test II herbicidal activity (Table 5); assay type: in vivo; conditions: post-emergence, 336 h, 14 days after application; for pest or weed control at 70 g/ha: application rate 70 g ai/ha; for pest or weed control at 140 g/ha: application rate 140 g ai/ha
Experimental: (§1) Post-emergent Test II: Seeds or nutlets of the desired test plant species were planted in Sun Gro Metro-Mix® 360 planting mixture, which typically has a pH of 6.0 to 6.8 and an organic matter content of about 30 percent, in plastic pots with a surface area of 64 square centimeters. When required to ensure good germination and healthy plants, a fungicide treatment and/or other chemical or physical treatment was applied. The plants were grown for 7-21 d in a greenhouse with an approximate 15 h photoperiod which was maintained at about 23-29° C. during the day and 22-28° C. during the night. Nutrients and water were added on a regular basis and supplemental lighting was provided with overhead metal halide 1000-Watt lamps as necessary. The plants were employed for testing when they reached the first or second true leaf stage.
(§2) A weighed amount, determined by the highest rate to be tested, of each test compound was placed in a 25 mL glass vial and was dissolved in 4 mL of a 97:3 v/v mixture of acetone and DMSO to obtain concentrated stock solutions. […] The concentrated stock solutions obtained were diluted with 20 mL of an aqueous mixture containing acetone, water, isopropyl alcohol, DMSO. Atplus 411F crop oil concentrate, and Triton® X-155 surfactant in a 48.5:39:10:1.5:1.0:0.02 v/v ratio to obtain spray solutions containing the highest application rates. Additional application rates were obtained by serial dilution of 12 mL of the high rate solution into a solution containing 2 mL of 97:3 v/v mixture of acetone and DMSO and 10 mL of an aqueous mixture containing acetone, water, isopropyl alcohol, DMSO, Atplus 411F crop oil concentrate, and Triton X-155 surfactant in a 48.5:39:10:1.5:1.0:0.02 v/v ratio to obtain ½×, ¼×, ⅛× and 1/16× rates of the high rate. Compound requirements are based upon a 12 mL application volume at a rate of 187 liters per hectare (L/ha). Formulated compounds were applied to the plant material with an overhead Mandel track sprayer equipped with 8002E nozzles calibrated to deliver 187 L/ha over an application area of 0.503 square meters at a spray height of 18 inches (43 cm) above the average plant canopy height. Control plants were sprayed in the same manner with the solvent blank.
(§3) The treated plants and control plants were placed in a greenhouse as described above and watered by subirrigation to prevent wash-off of the test compounds. After 14 d, the condition of the test plants as compared with that of the untreated plants was determined visually and scored on a scale of 0 to 100 percent where 0 corresponds to no injury and 100 corresponds to complete kill.

[2] = system: Key Grass and Sedge Weeds as well as Grass Crops; assay: Post-emergent Test II herbicidal activity (Table 6); assay type: in vivo; conditions: post-emergence, 336 h; for pest or weed control at 70 g/ha: 70 g ai/ha; for pest or weed control at 140 g/ha: 140 g ai/ha
Experimental: as §1, §2, §3

[3] = ABUTH: velvetleaf (Abutilon theophrasti), read-out: Visual Growth Reduction (%) 14 Days After Application, ABUTH
[4] = AMARE: redroot pigweed (Amaranthus retroflexus), read-out: Visual Growth Reduction (%) 14 Days After Application, AMARE
[5] = BRSNN: oilseed-rape, canola (Brassica napus), read-out: Visual Growth Reduction (%) 14 Days After Application, BRSNN
[6] = EPHHL: wild poinsettia (Euphorbia heterophylla), read-out: Visual Growth Reduction (%) 14 Days After Application, EPHHL
[7] = HELAN: sunflower (Helianthus annuus), read-out: Visual Growth Reduction (%) 14 Days After Application, HELAN
[8] = VIOTR: wild pansy (Viola tricolor), read-out: Visual Growth Reduction (%) 14 Days After Application, VIOTR
[9] = CYPES: yellow nutsedge (Cyperus esculentus), read-out: Visual Growth Reduction (%) 14 Days After Application, CYPES
[10] = DIGSA: crabgrass (Digitaria sanguinalis), read-out: Visual Growth Reduction (%) 14 Days After Application, DIGSA
[11] = ECHCG: barnyardgrass (Echinochloa crus-galli), read-out: Visual Growth Reduction (%) 14 Days After Application, ECHCG
[12] = ORYSA: rice (Oryza sativa), crop, read-out: Visual Growth Reduction (%) 14 Days After Application, ORYSA
[13] = SETFA: giant foxtail (Setaria faberi), read-out: Visual Growth Reduction (%) 14 Days After Application, SETFA
[14] = SORVU: grain sorghum (Sorghum vulgare), read-out: Visual Growth Reduction (%) 14 Days After Application, SORVU
[15] = TRZSS (wheat, Triticum aestivum), crop, read-out: Visual Growth Reduction (%) 14 Days After Application, TRZSS
[16] = ZEAMX: maize, corn (Zea mays), crop, read-out: Visual Growth Reduction (%) 14 Days After Application, ZEAMX

Structure (SMILES): COc1c(N)nc(-c2ccc(I)cc2)nc1C(=O)O [Compound 88]
- pest or weed control at 70 g/ha [1, 3]: 75 to 84%
- pest or weed control at 140 g/ha [1, 3]: 95 to 100%
- pest or weed control at 70 g/ha [1, 4]: 85 to 94%
- pest or weed control at 140 g/ha [1, 4]: 85 to 94%
- pest or weed control at 70 g/ha [1, 5]: 95 to 100%
- pest or weed control at 140 g/ha [1, 5]: 95 to 100%
- pest or weed control at 140 g/ha ([1]; CHEAL: lambsquarters (Chenopodium album), read-out: Visual Growth Reduction (%) 14 Days After Application, CHEAL): 95 to 100%
- pest or weed control at 70 g/ha [1, 6]: 95 to 100%
- pest or weed control at 140 g/ha [1, 6]: 95 to 100%
- pest or weed control at 70 g/ha [1, 7]: 85 to 94%
- pest or weed control at 140 g/ha [1, 7]: 85 to 94%
- pest or weed control at 70 g/ha [1, 8]: 45 to 59%
- pest or weed control at 140 g/ha [1, 8]: 60 to 74%
- pest or weed control at 70 g/ha [2, 9]: 85 to 94%
- pest or weed control at 140 g/ha [2, 9]: 95 to 100%
- pest or weed control at 70 g/ha [2, 10]: 0 to 29%
- pest or weed control at 140 g/ha [2, 10]: 0 to 29%
- pest or weed control at 70 g/ha [2, 11]: 75 to 84%
- pest or weed control at 140 g/ha [2, 11]: 75 to 84%
- pest or weed control at 70 g/ha [2, 12]: 0 to 29%
- pest or weed control at 140 g/ha [2, 12]: 0 to 29%
- pest or weed control at 70 g/ha [2, 13]: 60 to 74%
- pest or weed control at 140 g/ha [2, 13]: 85 to 94%
- pest or weed control at 70 g/ha [2, 14]: 75 to 84%
- pest or weed control at 140 g/ha [2, 14]: 85 to 94%
- pest or weed control at 70 g/ha [2, 15]: 60 to 74%
- pest or weed control at 140 g/ha [2, 15]: 60 to 74%
- pest or weed control at 70 g/ha [2, 16]: 45 to 59%
- pest or weed control at 140 g/ha [2, 16]: 45 to 59%
